Test system: IL-12 induced STAT4 phosphorylation mediated by TYK2/JAK2
Assay: IL-12 induced pSTAT4 in human PBMC
Assay type: cell-based
Details: 1 hr compound, 1.7 ng/mL IL-12 for 30 minutes
Description: Human PBMC were isolated from buffy coat and are stored frozen for assays as needed. […] 15 μL of compound or DMSO was added to the well at the desired concentrations and incubated at 1 hr at 37° C. 15 μL of stimulus (final concentration of 1.7 ng/mL IL-12) was added for 30 minutes prior to pSTAT4 and total STAT4 analysis using cell lysates prepared and analyzed by MSD reagents as per manufacturer protocol. The final DMSO concentration of compound in the assay was 0.1%. The IL-12 induced pSTAT4 assay evaluates the inhibition of IL-12 induced STAT4 phosphorlyation mediated by TYK2/JAK2 ([…] complex).

`CNc1cc(-c2cnc3n(CC(=O)N4CC5(COC5)C4)cccc2-3)nc2c(C(=O)N[C@H]3CC[C@@H]3OC)cnn12` [Compound I-1012] and `CNc1cc(-c2cnc3n(CC(=O)N4CCC4)cccc2-3)nc2c(C(=O)N[C@H]3CC[C@@H]3OC)cnn12` [Compound I-977] cannot be ordered by IC50: over 1 µM for the first, over 1 µM for the second.

`CNc1cc(Nc2cccn([C@H]3C[C@H](OC)C3)c2=O)nc2c(C(=O)NC3CCC3)cnn12` [Compound I-141] and `CNc1cc(Nc2cccn([C@H]3C[C@H](OC)C3)c2=O)nc2c(C(=O)N[C@@H]3CC[C@H]3F)cnn12` [Compound I-178] cannot be ordered by IC50: under 0.1 µM for the first, under 0.1 µM for the second.

`CNc1cc(-c2cn([C@H]3CCOC[C@H]3OC)c3ncccc23)nc2c(C(=O)N[C@@H]3CCC3(F)F)cnn12` [Compound I-811] and `CNc1cc(-c2cn([C@@H]3CCOC[C@@H]3OC)c3ncccc23)nc2c(C(=O)NC3CCC3(F)F)cnn12` (stereo partly drawn) [Compound I-702] cannot be ordered by IC50: under 0.1 µM for the first, under 0.1 µM for the second.

`CNc1cc(-c2cn(C3CCCC3)c3ncccc23)nc2c(C(=O)N[C@@H]3CCC3(F)F)cnn12` [Compound I-681] and `CNc1cc(-c2cn(C3CCCC3)c3ncccc23)nc2c(C(=O)N[C@H]3CCC3(F)F)cnn12` [Compound I-685] cannot be ordered by IC50: under 0.1 µM for the first, under 0.1 µM for the second.

`CNc1cc(-c2cn([C@@H]3CN(C)C[C@H]3F)c3ncccc23)nc2c(C(=O)NC3CC[C@@H]3OC)cnn12` (stereo partly drawn) [Compound I-642] and `CNc1cc(-c2cn([C@@H]3CN(C)C[C@H]3F)c3ncccc23)nc2c(C(=O)N[C@H]3CC[C@@H]3OC)cnn12` [Compound I-643] cannot be ordered by IC50: under 0.1 µM for the first, under 0.1 µM for the second.

`O=C(N[C@@H]1CCC1(F)F)c1cnn2c3c(c(Nc4cccn([C@H]5[C@@H]6COC[C@@H]65)c4=O)nc12)OCCN3` [Compound I-769] and `CO[C@@H]1CCC1NC(=O)c1cnn2c3c(c(Nc4cccn([C@H]5[C@@H]6COC[C@@H]65)c4=O)nc12)OCCN3` (stereo partly drawn) [Compound I-762] cannot be ordered by IC50: under 0.1 µM for the first, under 0.1 µM for the second.

`CNc1cc(-c2cn([C@@H]3COC[C@H]3OC)c3ccccc23)nc2c(C(=O)N[C@@H]3CC[C@H]3OC)cnn12` [Compound I-746] and `CNc1cc(-c2cnc3n([C@H]4COC[C@@H]4OC)cccc2-3)nc2c(C(=O)NC3CC[C@@H]3OC)cnn12` (stereo partly drawn) [Compound I-880] cannot be ordered by IC50: under 0.1 µM for the first, under 0.1 µM for the second.

`CNc1cc(Nc2cccn(C3CC(F)(F)C3)c2=O)nc2c(C(=O)N[C@@H]3C[C@H]3OC)cnn12` [Compound I-139] and `CNc1cc(Nc2cccn([C@H]3C[C@H](F)C3)c2=O)nc2c(C(=O)N[C@H]3C[C@@H]3OC)cnn12` [Compound I-138] cannot be ordered by IC50: under 0.1 µM for the first, under 0.1 µM for the second.

`CNc1cc(-c2cn([C@H]3CCOC[C@@H]3F)c3ncccc23)nc2c(C(=O)NC3CC[C@@H]3OC)cnn12` (stereo partly drawn) [Compound I-651] and `CNc1cc(-c2cn([C@@H]3CCOC[C@@H]3OC)c3ncccc23)nc2c(C(=O)NC3CC[C@@H]3OC)cnn12` (stereo partly drawn) [Compound I-668] cannot be ordered by IC50: under 0.1 µM for the first, under 0.1 µM for the second.

`CNc1cc(Nc2cccn([C@H]3CCCC[C@H]3O)c2=O)nc2c(C(=O)N[C@H]3CC[C@]3(C)OC)cnn12` [Compound I-424] and `CNc1cc(Nc2cccn([C@H]3CCC[C@H]3O)c2=O)nc2c(C(=O)NC3CC[C@]3(C)OC)cnn12` (stereo partly drawn) [Compound I-390] cannot be ordered by IC50: under 0.1 µM for the first, under 0.1 µM for the second.

`CNc1cc(Nc2cccn([C@H]3CCC[C@@](C)(O)C3)c2=O)nc2c(C(=O)N[C@@H]3C[C@@H]3F)cnn12` [Compound I-129] and `CNc1cc(Nc2cccn([C@@H]3CCC[C@](C)(OC)C3)c2=O)nc2c(C(=O)N[C@@H]3C[C@@H]3F)cnn12` [Compound I-131] cannot be ordered by IC50: under 0.1 µM for the first, under 0.1 µM for the second.

`CNc1cc(Nc2cccn([C@@H]3CCC[C@@H]3O)c2=O)nc2c(C(=O)NC3CC[C@@H]3F)cnn12` (stereo partly drawn) [Compound I-179] and `CNc1cc(Nc2cccn([C@H]3C[C@@H]3F)c2=O)nc2c(C(=O)N[C@H]3CC[C@@H]3F)cnn12` [Compound I-149] cannot be ordered by IC50: under 0.1 µM for the first, under 0.1 µM for the second.

`CNc1cc(-c2cnc3n([C@H]4COC[C@@H]4OC)cccc2-3)nc2c(C(=O)N[C@@H]3CC[C@@H]3F)cnn12` [Compound I-840] and `CNc1cc(-c2cnc3n([C@@H]4COC[C@H]4OC)cccc2-3)nc2c(C(=O)NC3CC[C@H]3F)cnn12` (stereo partly drawn) [Compound I-841] cannot be ordered by IC50: under 0.1 µM for the first, under 0.1 µM for the second.

`CNc1cc(Nc2cccn([C@H]3[C@@H]4COC[C@@H]43)c2=O)nc2c(C(=O)NC3CCC3)cnn12` [Compound I-142] and `CNc1cc(Nc2cccn([C@H]3[C@@H]4COC[C@@H]43)c2=O)nc2c(C(=O)N[C@H]3CC[C@H]3F)cnn12` [Compound I-204] cannot be ordered by IC50: under 0.1 µM for the first, under 0.1 µM for the second.

`CNc1cc(-c2cn(C3COC3)c3ncccc23)nc2c(C(=O)N[C@@H]3CCC3(F)F)cnn12` [Compound I-675] and `CNc1cc(-c2cn(C3CCOCC3)c3ncccc23)nc2c(C(=O)N[C@H]3CCC3(F)F)cnn12` [Compound I-699] cannot be ordered by IC50: under 0.1 µM for the first, under 0.1 µM for the second.

`CC(C)n1cc(-c2nc3c(C(=O)NC4CC[C@H]4O)cnn3c3c2OCCN3)c2cccnc21` (stereo partly drawn) [Compound I-753] and `O=C(N[C@H]1CCC1(F)F)c1cnn2c3c(c(-c4cn([C@H]5C[C@H](O)C5)c5ncccc45)nc12)OCCN3` [Compound I-776] cannot be ordered by IC50: under 0.1 µM for the first, under 0.1 µM for the second.

`CNc1cc(-c2cn(C3CN(C)C3)c3ncccc23)nc2c(C(=O)NC3CC[C@@H]3F)cnn12` (stereo partly drawn) [Compound I-513] and `CNc1cc(-c2cn(C3COC3)c3ncccc23)nc2c(C(=O)N[C@H]3CC[C@@H]3F)cnn12` [Compound I-508] cannot be ordered by IC50: under 0.1 µM for the first, under 0.1 µM for the second.

`O=C(N[C@@H]1CCC1(F)F)c1cnn2c3c(c(-c4cn(C5COC5)c5ncccc45)nc12)OCCN3` [Compound I-772] and `CNc1cc(-c2cn([C@@H]3CCOC[C@@H]3OC)c3ncccc23)nc2c(C(=O)N[C@H]3CCC3(F)F)cnn12` [Compound I-703] cannot be ordered by IC50: under 0.1 µM for the first, under 0.1 µM for the second.

`CNc1cc(Nc2cccn([C@H]3C[C@H](F)C3)c2=O)nc2c(C(=O)NC3CCC3(F)F)cnn12` (stereo partly drawn) [Compound I-283] and `CNc1cc(Nc2cccn([C@@H]3CC[C@@H]3O)c2=O)nc2c(C(=O)N[C@H]3CCC3(F)F)cnn12` [Compound I-290] cannot be ordered by IC50: under 0.1 µM for the first, under 0.1 µM for the second.

`CNc1cc(Nc2cccn([C@@H]3CCC[C@H](C#N)C3)c2=O)nc2c(C(=O)N[C@@H]3CC[C@H]3OC)cnn12` [Compound I-260] and `CNc1cc(Nc2cccn([C@H]3CCC[C@@H](C#N)C3)c2=O)nc2c(C(=O)NC3CCC3(F)F)cnn12` (stereo partly drawn) [Compound I-330] cannot be ordered by IC50: under 0.1 µM for the first, under 0.1 µM for the second.

`CNc1cc(Nc2cccn([C@H]3CC[C@H](OC)CC3)c2=O)nc2c(C(=O)N[C@@H]3CC[C@@]3(C)OC)cnn12` [Compound I-428] and `CNc1cc(Nc2cccn([C@@H]3CCOC[C@@H]3OC)c2=O)nc2c(C(=O)N[C@@H]3CCC3(F)F)cnn12` [Compound I-338] cannot be ordered by IC50: under 0.1 µM for the first, under 0.1 µM for the second.

`CNc1cc(-c2cn([C@@H]3CCN(C)C3)c3ncccc23)nc2c(C(=O)NC3CC[C@@H]3OC)cnn12` (stereo partly drawn) [Compound I-615] and `CNc1cc(-c2cn([C@H]3CC(=O)N(C)C3)c3ncccc23)nc2c(C(=O)N[C@H]3CC[C@@H]3OC)cnn12` [Compound I-1024] cannot be ordered by IC50: under 0.1 µM for the first, under 0.1 µM for the second.

`CC(C)n1cccc(Nc2nc3c(C(=O)N[C@H]4CCC4(F)F)cnn3c3c2OCCN3)c1=O` [Compound I-766] and `CNc1cc(Nc2cccn([C@@H]3CCCOC3)c2=O)nc2c(C(=O)N[C@@H]3CCC3(F)F)cnn12` [Compound I-317] cannot be ordered by IC50: under 0.1 µM for the first, under 0.1 µM for the second.

`CNc1cc(-c2cn([C@H]3COC[C@H]3F)c3ncccc23)nc2c(C(=O)NC3CC[C@H]3O)cnn12` (stereo partly drawn) [Compound I-573] and `CNc1cc(-c2cn([C@@H]3CCOC[C@H]3F)c3ncccc23)nc2c(C(=O)N[C@H]3CC[C@H]3O)cnn12` [Compound I-918] cannot be ordered by IC50: under 0.1 µM for the first, under 0.1 µM for the second.

`CNc1cc(Nc2cccn([C@@H]3CCCOC3)c2=O)nc2c(C(=O)N[C@@H]3CC[C@H]3F)cnn12` [Compound I-196] and `CNc1cc(Nc2cccn([C@H]3C[C@H](F)C3)c2=O)nc2c(C(=O)N[C@H]3CC[C@H](O)C3)cnn12` [Compound I-436] cannot be ordered by IC50: under 0.1 µM for the first, under 0.1 µM for the second.

`CNc1cc(-c2cn(CCOC)c3ncccc23)nc2c(C(=O)N[C@H]3CC[C@@H]3OC)cnn12` [Compound I-923] and `CNc1cc(-c2cn([C@@H]3CN(C)C[C@H]3OC)c3ncccc23)nc2c(C(=O)NC3CC[C@@H]3OC)cnn12` (stereo partly drawn) [Compound I-645] cannot be ordered by IC50: under 0.1 µM for the first, under 0.1 µM for the second.

`CNc1cc(-c2cn(C3COC3)c3ncccc23)nc2c(C(=O)N[C@H]3CC[C@H]3O)cnn12` [Compound I-555] and `CNc1cc(-c2cn([C@@H]3CCOC3)c3ncccc23)nc2c(C(=O)NC3CC[C@@H]3OC)cnn12` (stereo partly drawn) [Compound I-609] cannot be ordered by IC50: under 0.1 µM for the first, under 0.1 µM for the second.

`CNc1cc(-c2cnc3n([C@@H]4CCOC4)cccc2-3)nc2c(C(=O)N[C@H]3CC[C@@H]3OC)cnn12` [Compound I-1004] and `CNc1cc(-c2cnc3n([C@@H]4CCOC[C@H]4OC)cccc2-3)nc2c(C(=O)N[C@@H]3CC[C@H]3OC)cnn12` [Compound I-896] cannot be ordered by IC50: under 0.1 µM for the first, under 0.1 µM for the second.

`CNc1cc(-c2cnc3n([C@H]4COC[C@@H]4O)cccc2-3)nc2c(C(=O)N[C@@H]3C[C@@H]3F)cnn12` [Compound I-820] and `CNc1cc(-c2cn([C@H]3COC[C@@H]3OC)c3ncccc23)nc2c(C(=O)N[C@@H]3CC[C@@H]3F)cnn12` [Compound I-530] cannot be ordered by IC50: under 0.1 µM for the first, under 0.1 µM for the second.

`CNc1ccc(-c2cc(NC)n3ncc(C(=O)NC4CC[C@H]4F)c3n2)n2ccnc12` (stereo partly drawn) [Compound I-483] and `CNc1ccc(-c2cc(NC)n3ncc(C(=O)N[C@@H]4C[C@@H]4F)c3n2)n2ccnc12` [Compound I-479] cannot be ordered by IC50: under 0.1 µM for the first, under 0.1 µM for the second.

`CNc1cc(Nc2cccn(-c3ncccc3F)c2=O)nc2c(C(=O)NC3CC[C@@]3(C)OC)cnn12` (stereo partly drawn) [Compound I-414] and `CNc1cc(Nc2cccn(-c3ccccn3)c2=O)nc2c(C(=O)N[C@@H]3CCC3(F)F)cnn12` [Compound I-320] cannot be ordered by IC50: under 0.1 µM for the first, under 0.1 µM for the second.

With `CNc1cc(-c2cn([C@H]3C[C@@H](O)C3)c3ncccc23)nc2c(C(=O)N[C@H]3CC[C@@H]3OC)cnn12` [Compound I-606] the IC50 was under 0.1 µM.
